Legend:
Format in all cases: cell-based
[1] = system: PKA-II (phospho-RIIα/β) in rat DRG neurons; assay: High-content imaging of PKA-II activity (pRII) in DRG sensory neurons
Procedure: (§1) To gauge sensory neuron activity in response to various activating stimuli, including electrical activity, phosphorylation state detection of protein kinase A type II (PKA-II) and MAP kinase Erk1/2 can act as surrogate measurements. Consequently, we tested for increased phosphorylation states in a concentration-dependent manner following exposure to xibalbins. Dissociated DRG neurons were cultured overnight and then exposed to increasing concentrations of the corresponding xibalbins for 5 min and 30 min, respectively. As a positive control, forskolin (Fsk) was also used to induce cAMP synthesis. The activity of PKA-II was monitored by antibodies directed against the phosphorylation site of the inhibitory regulatory subunits RIIα/β, which is exclusively accessible when the catalytic kinase domain is released during kinase activation. For measuring Erk1/2 activity, phospho-sites on Erk1/2 (T202/Y204) were monitored through immunofluorescence, as these sites are phosphorylated during activation. Cellular images were captured using HCI microscopy (Fig. 8A), and the average intensity of each phospho-antibody was quantified (Fig. 8B).
(§2) Fig. 8 A Representative images of rat DRG neurons stimulated with PBS (Ctrl) and xib1b (0.8 µg/µL). Cells were stained for UCHL1, pRII, pERK1/2, and Hoechst followed by fixation and staining with standard immunocytochemistry protocols. Green-encircled neurons indicate automatically selected objects. Scale bar: 100 µm. B Mean intensities of UCHL1, pRII, and pERK1/2. The same UCHL1 intensities were observed among tested groups. Forskolin (Fsk), an activator of adenylyl cyclase, was used as a positive control. Fsk at 6 µM concentration induced an increase in pRII and pERK1/2 intensities at 5 and 30 min. Number of analyzed cells per replica: 750 ± 200. Eight independent replicas. C–F Concentration responses of xibalbin toxins (0.005 to 0.8 µg/µL) and mean intensities of pRII and pERK1/2 at 5 min and 30 min. G–H Size versus pRII and pErk1/2 intensities of cells treated with 0.8 µg/µL of xib1 and xib13. Small-sized cells were responding to xibalbins. Statistical significance was assessed using one-way ANOVA with Dunnett’s post hoc test. Data represent mean ± S.E.M (standard error of the mean), n = 4, see “Methods” for details and Additional File 6: Table S2 for individual data values
(§3) Male Sprague Dawley rats (250–400 g, 8–16 weeks old) were obtained from Envigo. Rats were kept in 12 h of light/darkness cycles. All experiments were performed in accordance with the German animal welfare law with permission of the District Government for Nature and Environment, NRW (84–02.05.20.13.045, 4.18.003). Rats were scarified by slow inhalation of CO2 which was followed by decapitation. DRGs were extracted from rats, deheated, pooled, and incubated in Neurobasal A/B27 medium (Invitrogen, #12349–015) supplemented with B-27 (Invitrogen #17504), L-glutamine 1:400, L-glutamate 1:270.3, and penicillin/streptomycin 1:100 containing 0.2 U/mL collagenase P (collagenase P, Roche, #1213857) and incubated for 1 h at 37 °C, 5% CO2. DRGs were dissociated with pasteur pipettes and axon stumps were separated by BSA (Sigma-Aldrich, # A2153-100G) gradient centrifugation (14% BSA, 120 g, 8 min). Cells were resuspended in NBA medium, plated in 96-well imaging plate (Greiner BioOne Sensoplate, Black, #655896) precoated with poly-L-ornithine hydrochloride (0.1 mg/ml Sigma, #P2533)/laminin (5 µg/ml Invitrogen, #23017–015), and incubated overnight at 37 °C, 5% CO2.
(§4) DRGs were stimulated after overnight incubation. Compounds were prepared as tenfold concentrated stock solutions, diluted in PBS (PAA, cat# H15-002), in v-bottom plates; 50 µL media from culture wells were mixed with the […] stock solutions, and 50 µL added back to the respective wells. Stimulation was performed with automated multichannel pipette and cells were kept in heated block during the stimulation. […]

[2] = system: Erk1/2 (T202/Y204) in rat DRG neurons; assay: High-content imaging of pERK1/2 in DRG sensory neurons; settings: positive control Fsk 6 µM; 5 and 30 min
Procedure: as §1, §2, §3, §4

HEK293T cells = assay: Ca2+ influx induction, Fluo-8 calcium imaging; settings: HEK293 cells
Procedure: We examined the potential of xibalbins in a concentration range of 0.25 to 25 µg/ml regarding their effects on Ca^2+ influx in HEK293 cells, which express calcium channels. […] However, exposure to none of the four xibalbin variants by itself did increase [Ca^2+]i as measured by Fluo-8 calcium imaging assay. Additionally, none of the xibalbin variants modulated forskolin-induced [Ca^2+]i increase (Additional File 7: Figure S5 A). We also evaluated the effect of xibalbins on cAMP synthesis. However, xibalbins had no effect on increasing cAMP synthesis in HEK293 cells or on preventing the forskolin-induced cAMP synthesis (Additional File 7: Figure S5 B).
Supplementary file 12915_2024_1955_MOESM7_ESM.jpg: Additional file 7: Figure S5. […] A threshold of fluorescence intensity was defined using cells before treatment, all cells above the threshold level were counted. […] For the induction assay (left panel), the luminescence was detected (background, 3 measurements every 5 min) and then the xibalbins (0.25, 2.5, 25 μg/ml) or 5 μM forskolin were added to detect the luminescence (3 measurements/5 min) using a plate reader (Spark, Tecan, Männedorf, Switzerland). For the inhibition assay (right panel), the xibalbin-treated cells were incubated with 5 μM forskolin to detect the luminescence (3 measurements/5 min). […] After 24 h NO was determined in supernatants with the Griess method. […]

C=C[C@@]1(C)CC(=O)[C@]2(O)[C@@]3(C)[C@@H](O)CCC(C)(C)[C@@H]3[C@H](O)[C@H](OC(C)=O)[C@@]2(C)O1 [Forskolin, reference compound]
pRII intensity ([1]; positive control Fsk 6 µM, 5 and 30 min): increase | pRII response by neuron size ([1]; xibalbins 0.8 µg/µL): activated both small and large-sized sensory neurons | pERK1/2 intensity [2]: increase | increase of [Ca2+]i by positive control (HEK293T cells): increased [Ca^2+]i
